Values of other authors in US20220117915A1, “METHODS OF TREATING ACUTE STRESS DISORDER AND POSTTRAUMATIC STRESS DISORDER” (Tonix Pharma Holdings Limited, priority 2018, published 2022).

Assays:
[1] = ASD or very early PTSD
[2] = target: serotonergic-2A (5-HT2A) receptor (Homo sapiens, UniProt P28223)
[3] = target: alpha-adrenergic-1A (α1A) receptor (Homo sapiens, UniProt P35348)
alpha-adrenergic-1A (α1A) receptor, sequence (P35348 whole entry): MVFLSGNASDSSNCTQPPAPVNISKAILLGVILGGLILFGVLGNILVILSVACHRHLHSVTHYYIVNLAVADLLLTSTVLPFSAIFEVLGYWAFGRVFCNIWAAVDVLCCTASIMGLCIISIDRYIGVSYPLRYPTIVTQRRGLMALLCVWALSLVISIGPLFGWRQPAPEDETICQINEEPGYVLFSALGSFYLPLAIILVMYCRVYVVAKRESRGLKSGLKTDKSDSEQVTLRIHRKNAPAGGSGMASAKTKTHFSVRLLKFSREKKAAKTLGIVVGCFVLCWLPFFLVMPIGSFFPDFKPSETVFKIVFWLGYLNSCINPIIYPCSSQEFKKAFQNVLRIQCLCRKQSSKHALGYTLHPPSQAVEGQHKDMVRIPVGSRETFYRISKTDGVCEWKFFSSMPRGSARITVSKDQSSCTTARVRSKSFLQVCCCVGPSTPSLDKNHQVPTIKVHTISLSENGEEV

serotonergic-2A (5-HT2A) receptor, sequence (P28223 whole entry, species assumed): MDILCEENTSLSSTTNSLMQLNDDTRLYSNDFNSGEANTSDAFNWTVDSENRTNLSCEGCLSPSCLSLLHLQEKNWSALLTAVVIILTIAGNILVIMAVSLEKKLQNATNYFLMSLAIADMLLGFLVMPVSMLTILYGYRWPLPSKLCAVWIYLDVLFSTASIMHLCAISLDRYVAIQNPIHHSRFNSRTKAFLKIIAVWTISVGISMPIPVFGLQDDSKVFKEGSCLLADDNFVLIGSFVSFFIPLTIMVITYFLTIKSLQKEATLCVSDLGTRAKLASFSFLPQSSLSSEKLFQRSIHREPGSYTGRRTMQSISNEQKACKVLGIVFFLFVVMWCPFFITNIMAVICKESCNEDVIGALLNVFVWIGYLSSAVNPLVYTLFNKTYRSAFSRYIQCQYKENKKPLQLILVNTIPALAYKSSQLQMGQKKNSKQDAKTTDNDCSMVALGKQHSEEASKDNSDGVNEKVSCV

CN(C)CCC[C@@]1(c2ccc(F)cc2)OCc2cc(C#N)ccc21 [escitalopram]
preventing development of PTSD versus placebo [1]: failed to perform any better than the placebo

Fc1ccc([C@@H]2CCNC[C@H]2COc2ccc3c(c2)OCO3)cc1 [paroxetine]
efficacy as a PTSD treatment (long-standing PTSD, average of 15 years since the trauma): offered patients with long-standing PTSD relief | improvement by time since trauma (trauma more than 5 years prior to treatment versus more recent trauma): greater improvement

CN(C)CCC=C1c2ccccc2C=Cc2ccccc21 [Cyclobenzaprine, 3-(5H-dibenzola[a,d]cyclohepten-5-ylidene)-N,N-dimethyl-1 propanamine]
5-HT2A receptor antagonist activity [2]: potent | α1A receptor antagonist activity [3]: potent
